Experimental data taken from patent US20230257396A1, “MACROCYCLES AND THEIR USE” (BLOSSOMHILL THERAPEUTICS, INC., priority 2020, published 2023).
Where a chain is given by its changes, count along the chain named.

What was measured:
Assay in all cases: KINOMEscan kinase binding assay (Eurofins/DiscoveRx), % Ctrl
kinases [1] = target: T1, kinases (Homo sapiens, UniProt P00533)
T1 construct: purchased Eurofins/DiscoveRx; host or cells: E. coli BL21-derived host (T7 phage display) for most kinases; HEK-293 for the rest
Procedure, shortened: (§1)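 Read-out is qPCR of kinase eluted from ligand-coated streptavidin beads after 1 h room-temperature competition with test compound. Values are % Ctrl at the tested concentration, lower meaning tighter binding.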

kinases [2] = target: T2, kinases (Homo sapiens, UniProt P16234)
T2 construct: purchased Eurofins/DiscoveRx; host or cells: E. coli BL21-derived host (T7 phage display) for most kinases; HEK-293 for the rest
Procedure, shortened: as §1

kinases [3] = target: T3, kinases (Homo sapiens, UniProt P36888, D835H)
T3 construct: purchased Eurofins/DiscoveRx; host or cells: E. coli BL21-derived host (T7 phage display) for most kinases; HEK-293 for the rest
T3 sequence (P36888 27-993 D835H): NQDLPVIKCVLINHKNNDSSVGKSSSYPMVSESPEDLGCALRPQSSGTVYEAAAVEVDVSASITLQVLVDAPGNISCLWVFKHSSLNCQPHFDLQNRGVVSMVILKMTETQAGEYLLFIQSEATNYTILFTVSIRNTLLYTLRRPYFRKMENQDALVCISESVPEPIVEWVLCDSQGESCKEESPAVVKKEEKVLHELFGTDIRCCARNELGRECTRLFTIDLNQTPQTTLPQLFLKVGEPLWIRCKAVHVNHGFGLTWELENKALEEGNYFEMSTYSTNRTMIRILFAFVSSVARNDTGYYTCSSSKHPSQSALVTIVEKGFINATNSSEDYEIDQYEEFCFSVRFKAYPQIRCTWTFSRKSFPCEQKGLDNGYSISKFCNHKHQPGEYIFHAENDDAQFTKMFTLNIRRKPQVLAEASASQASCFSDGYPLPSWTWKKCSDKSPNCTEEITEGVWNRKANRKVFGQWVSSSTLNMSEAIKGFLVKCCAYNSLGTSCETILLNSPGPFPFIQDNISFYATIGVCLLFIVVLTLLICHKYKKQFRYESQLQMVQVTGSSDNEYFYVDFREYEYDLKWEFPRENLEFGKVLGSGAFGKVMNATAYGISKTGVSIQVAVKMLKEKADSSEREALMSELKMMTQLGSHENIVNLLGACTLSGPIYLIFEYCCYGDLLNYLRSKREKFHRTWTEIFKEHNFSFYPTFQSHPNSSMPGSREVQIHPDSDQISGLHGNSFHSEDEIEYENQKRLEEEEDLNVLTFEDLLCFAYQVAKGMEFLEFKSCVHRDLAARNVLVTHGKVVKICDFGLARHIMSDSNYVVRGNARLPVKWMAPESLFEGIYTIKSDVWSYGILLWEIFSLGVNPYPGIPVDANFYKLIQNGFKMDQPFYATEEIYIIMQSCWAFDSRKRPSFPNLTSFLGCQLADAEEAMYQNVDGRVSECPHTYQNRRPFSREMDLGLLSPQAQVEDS
Procedure, shortened: as §1

kinases [4] = target: T4, kinases (Homo sapiens, UniProt P36888, D835Y)
T4 construct: purchased Eurofins/DiscoveRx; host or cells: E. coli BL21-derived host (T7 phage display) for most kinases; HEK-293 for the rest
T4 sequence (P36888 27-993 D835Y): T3 sequence (P36888 27-993 D835H) with H809Y
Procedure, shortened: as §1

kinases [5] = system: kinases
Procedure, shortened: as §1

[6] = 1 μM; EGFR(L747-E749del, A750P)
[7] = 1 μM; EGFR(L747-S752del, P753S)
[8] = target EGFR(L747-E749del, A750P); 1 μM
[9] = target EGFR(L747-S752del, P753S); 1 μM
[10] = target EGFR(L747-T751del, Sins); 1 μM

T1 sequence (P00533 25-1210): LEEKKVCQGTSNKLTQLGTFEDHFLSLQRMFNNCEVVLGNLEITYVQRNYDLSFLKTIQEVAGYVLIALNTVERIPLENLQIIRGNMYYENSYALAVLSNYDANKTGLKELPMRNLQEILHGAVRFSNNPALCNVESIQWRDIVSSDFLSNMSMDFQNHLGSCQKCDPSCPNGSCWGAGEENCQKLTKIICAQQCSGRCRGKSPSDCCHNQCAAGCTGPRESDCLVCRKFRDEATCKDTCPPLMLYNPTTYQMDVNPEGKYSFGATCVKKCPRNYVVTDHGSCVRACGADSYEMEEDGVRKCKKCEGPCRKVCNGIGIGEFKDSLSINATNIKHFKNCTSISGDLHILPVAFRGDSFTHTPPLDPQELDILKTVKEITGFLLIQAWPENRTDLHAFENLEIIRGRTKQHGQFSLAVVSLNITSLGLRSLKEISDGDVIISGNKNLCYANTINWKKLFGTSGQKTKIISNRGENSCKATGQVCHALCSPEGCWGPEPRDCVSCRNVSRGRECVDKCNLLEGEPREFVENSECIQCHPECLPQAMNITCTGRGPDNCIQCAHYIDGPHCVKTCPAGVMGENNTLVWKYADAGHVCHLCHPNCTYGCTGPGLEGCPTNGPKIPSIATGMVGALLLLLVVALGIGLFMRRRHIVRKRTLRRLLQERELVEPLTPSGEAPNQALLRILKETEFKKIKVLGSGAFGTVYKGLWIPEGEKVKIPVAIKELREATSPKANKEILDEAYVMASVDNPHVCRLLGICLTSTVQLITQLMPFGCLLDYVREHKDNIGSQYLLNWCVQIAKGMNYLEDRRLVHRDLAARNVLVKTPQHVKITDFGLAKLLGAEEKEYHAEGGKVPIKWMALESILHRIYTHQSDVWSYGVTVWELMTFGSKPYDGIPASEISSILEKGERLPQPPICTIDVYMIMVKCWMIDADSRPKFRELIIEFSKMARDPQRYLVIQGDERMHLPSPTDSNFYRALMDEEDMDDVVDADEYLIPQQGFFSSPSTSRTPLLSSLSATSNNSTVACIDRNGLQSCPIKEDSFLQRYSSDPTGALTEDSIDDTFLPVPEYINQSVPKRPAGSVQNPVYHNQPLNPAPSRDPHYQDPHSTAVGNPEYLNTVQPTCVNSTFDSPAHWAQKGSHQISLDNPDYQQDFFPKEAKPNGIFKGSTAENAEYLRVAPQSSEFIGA
T2 sequence (P16234 24-1089): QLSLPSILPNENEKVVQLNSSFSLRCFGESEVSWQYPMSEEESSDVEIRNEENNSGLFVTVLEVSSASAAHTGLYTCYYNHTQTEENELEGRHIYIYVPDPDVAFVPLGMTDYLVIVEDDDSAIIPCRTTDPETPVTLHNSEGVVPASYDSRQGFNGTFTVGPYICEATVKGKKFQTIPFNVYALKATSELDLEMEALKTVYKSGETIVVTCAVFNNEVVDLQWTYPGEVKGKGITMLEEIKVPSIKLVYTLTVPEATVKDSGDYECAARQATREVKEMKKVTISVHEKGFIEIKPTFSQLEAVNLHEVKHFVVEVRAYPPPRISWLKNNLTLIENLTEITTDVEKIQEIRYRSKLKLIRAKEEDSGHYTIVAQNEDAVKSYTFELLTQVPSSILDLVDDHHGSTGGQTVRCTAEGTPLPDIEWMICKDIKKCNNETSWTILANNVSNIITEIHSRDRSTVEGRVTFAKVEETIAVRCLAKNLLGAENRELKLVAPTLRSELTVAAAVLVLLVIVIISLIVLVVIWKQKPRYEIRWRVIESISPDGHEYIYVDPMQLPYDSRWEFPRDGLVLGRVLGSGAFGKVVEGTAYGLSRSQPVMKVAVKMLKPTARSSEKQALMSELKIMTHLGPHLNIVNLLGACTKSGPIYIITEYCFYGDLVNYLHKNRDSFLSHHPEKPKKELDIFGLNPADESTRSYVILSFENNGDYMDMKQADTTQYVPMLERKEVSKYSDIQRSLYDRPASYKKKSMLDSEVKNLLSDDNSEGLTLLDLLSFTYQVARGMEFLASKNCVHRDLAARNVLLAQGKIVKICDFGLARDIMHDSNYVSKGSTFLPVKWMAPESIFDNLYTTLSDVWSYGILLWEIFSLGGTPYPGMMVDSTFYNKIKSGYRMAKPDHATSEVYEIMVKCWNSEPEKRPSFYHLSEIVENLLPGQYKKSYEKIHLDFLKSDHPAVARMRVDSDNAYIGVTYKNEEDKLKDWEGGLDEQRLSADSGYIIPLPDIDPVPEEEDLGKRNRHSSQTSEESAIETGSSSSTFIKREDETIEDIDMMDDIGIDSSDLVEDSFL

| % Ctrl, EGFR (kinases [1]; 1 μM; EGFR) [% Ctrl] | % Ctrl, PDGFRA (kinases [2]; 1 μM; PDGFRA) [% Ctrl] | % Ctrl, FLT3(D835H) (kinases [3]; 1 μM; FLT3(D835H)) [% Ctrl] | % Ctrl, FLT3(D835Y) (kinases [4]; 1 μM; FLT3(D835Y)) [% Ctrl] | % Ctrl, EGFR(L747-E749del, A750P) (kinases [5]; [6]) [% Ctrl] | % Ctrl, EGFR(L747-S752del, P753S) (kinases [5]; [7]) [% Ctrl] | % Ctrl, EGFR(L747-T751del, Sins) (kinases [5]; 1 μM; EGFR(L747-T751del, Sins)) [% Ctrl] | % Ctrl, FLT3(ITD) (kinases [5]; 1 μM; FLT3(ITD)) [% Ctrl] | % Ctrl, FLT3(ITD, D835V) (kinases [5]; 1 μM; FLT3(ITD, D835V)) [% Ctrl] | % Ctrl, FLT3(ITD, F691L) (kinases [5]; 1 μM; FLT3(ITD, F691L)) [% Ctrl] | Structure (SMILES) | also measured |
| --- | --- | --- | --- | --- | --- | --- | --- | --- | --- | --- | --- |
| 62 | 19 | 5.2 | 8.8 | 87 | 78 | 77 | 13 | 0.8 | 0.35 | Cc1cc2c([nH]1)/C=C1\C(=O)Nc3ccc(cc31)-c1ccnn1CCOCCN(C)C2=O [Ex. 41, [19a(20)Z]-2,5-dimethyl-6,7,9,10-tetrahydro-1H-15,17-(ethanediylidene)pyrazolo[1,5-d]dipyrrolo[3,4-h:2′,3′-k][1,4,14]oxadiazacyclohexadecine-4,19(5H,18H)-dione] | – |
| – | – | – | – | – | – | – | – | – | – | CN1CCOCCOc2cc3c(cc2Cl)NC(=O)/C3=C\c2[nH]ccc2C1=O [Ex. 143, [16a(17)Z]-19-chloro-2,5-dimethyl-6,7,9,10-tetrahydro-1H-12,14-(ethanediylidene)dipyrrolo[3,2-i:3′,4′-l][1,4,7]oxathiazacyclopentadecine-4,16(5H,15H)-dione] | % Ctrl, EGFR (kinases [1]; target EGFR; 1 μM): 100 % Ctrl; % Ctrl, PDGFRA (kinases [2]; target PDGFRA; 1 μM): 41 % Ctrl; % Ctrl, FLT3(D835H) (kinases [3]; target FLT3(D835H); 1 μM): 0.8 % Ctrl; % Ctrl, FLT3(D835Y) (kinases [4]; target FLT3(D835Y); 1 μM): 3.1 % Ctrl; % Ctrl, EGFR(L747-E749del, A750P) (kinases [5]; [8]): 90 % Ctrl; % Ctrl, EGFR(L747-S752del, P753S) (kinases [5]; [9]): 89 % Ctrl; % Ctrl, EGFR(L747-T751del, Sins) (kinases [5]; [10]): 96 % Ctrl; % Ctrl, FLT3(ITD) (kinases [5]; target FLT3(ITD); 1 μM): 2.5 % Ctrl; % Ctrl, FLT3(ITD, D835V) (kinases [5]; target FLT3(ITD, D835V); 1 μM): 0.6 % Ctrl; % Ctrl, FLT3(ITD, F691L) (kinases [5]; target FLT3(ITD, F691L); 1 μM): 1 % Ctrl |
| 98 | 95 | 32 | 28 | 91 | 55 | 98 | 45 | 8.3 | 9.2 | Cc1cc2c([nH]1)/C=C1\C(=O)Nc3ccc(cc31)O[C@@H](C)COCCN(C)C2=O [Ex. 92, [10S,16a(17)Z]-2,5,10-trimethyl-6,7,9,10-tetrahydro-1H-12,14-(ethanediylidene)dipyrrolo[3,2-i:3′,4′-l][1,4,7]dioxazacyclopentadecine-4,16(5H,15H)-dione] | – |
| 99 | 70 | 39 | 3.1 | 100 | 100 | 100 | 26 | 2.8 | 5.6 | Cc1cc2c([nH]1)/C=C1\C(=O)Nc3cc(Cl)c(cc31)OCCO[C@@H](C(=O)NC1CNC1)CN(C)C2=O [Ex. 133, [7R,16a(17)Z]-N-(azetidin-3-yl)-19-chloro-2,5-dimethyl-4,16-dioxo-4,5,6,7,9,10,15,16-octahydro-1H-12,14-(ethanediylidene)dipyrrolo[3,2-i:3′,4′-l][1,4,7]dioxazacyclopentadecine-7-carboxamide] | – |
| 42 | 47 | 0.15 | 1.4 | 26 | 40 | 43 | 2.2 | 0 | 6.2 | Cc1cc2c([nH]1)/C=C1\C(=O)Nc3ccc(cc31)-c1c(C)n[nH]c1CNCCN(C)C2=O [Ex. 127, [3a(4)Z]-6,9,16-trimethyl-9,10,11,12,13,14-hexahydro-1,17-(ethanediylidene)pyrazolo[4,3-m]dipyrrolo[3,2-f:3′,4′-i][1,4]diazacyclopentadecine-3,8(2H,5H)-dione] | – |
| – | – | – | – | – | – | – | – | – | – | Cc1cc2c([nH]1)/C=C1\C(=O)Nc3cnc(cc31)-c1cn[nH]c1CNCCN(C)C2=O [Ex. 55, [3a(4)Z]-6,9-dimethyl-9,10,11,12,13,14-hexahydro-17,1-(azenometheno)pyrazolo[4,3-m]dipyrrolo[3,2-f:3′,4′-i][1,4]diazacyclopentadecine-3,8(2,5H)-dione] | % Ctrl, EGFR (kinases [1]; target EGFR; 1 μM): 59 % Ctrl; % Ctrl, PDGFRA (kinases [2]; target PDGFRA; 1 μM): 50 % Ctrl; % Ctrl, FLT3(D835H) (kinases [3]; target FLT3(D835H); 1 μM): 2.7 % Ctrl; % Ctrl, FLT3(D835Y) (kinases [4]; target FLT3(D835Y); 1 μM): 2 % Ctrl; % Ctrl, EGFR(L747-E749del, A750P) (kinases [5]; [8]): 82 % Ctrl; % Ctrl, EGFR(L747-S752del, P753S) (kinases [5]; [9]): 56 % Ctrl; % Ctrl, EGFR(L747-T751del, Sins) (kinases [5]; [10]): 66 % Ctrl; % Ctrl, FLT3(ITD) (kinases [5]; target FLT3(ITD); 1 μM): 0.3 % Ctrl; % Ctrl, FLT3(ITD, D835V) (kinases [5]; target FLT3(ITD, D835V); 1 μM): 1.2 % Ctrl; % Ctrl, FLT3(ITD, F691L) (kinases [5]; target FLT3(ITD, F691L); 1 μM): 0.1 % Ctrl |
| – | – | – | – | – | – | – | – | – | – | Cc1cc2c([nH]1)/C=C1\C(=O)Nc3cc(Cl)c(cc31)SCCOCCN(C)C2=O [Ex. 169, [16a(17)Z]-19-chloro-5-methyl-6,7,9,10-tetrahydro-1H-12,14-(ethanediylidene)dipyrrolo[3,4-g:2′,3′-j][1,4,13]oxathiazacyclopentadecine-4,16(5H,15H)-dione] | % Ctrl, EGFR (kinases [1]; 1 μM; target EGFR): 42 % Ctrl; % Ctrl, PDGFRA (kinases [2]; 1 μM; target PDGFRA): 16 % Ctrl; % Ctrl, FLT3(D835H) (kinases [3]; 1 μM; target FLT3(D835H)): 0.1 % Ctrl; % Ctrl, FLT3(D835Y) (kinases [4]; 1 μM; target FLT3(D835Y)): 1.6 % Ctrl; % Ctrl, EGFR(L747-E749del, A750P) (kinases [5]; 1 μM; target EGFR(L747-E749del, A750P)): 44 % Ctrl; % Ctrl, EGFR(L747-S752del, P753S) (kinases [5]; 1 μM; target EGFR(L747-S752del, P753S)): 56 % Ctrl; % Ctrl, EGFR(L747-T751del, Sins) (kinases [5]; 1 μM; target EGFR(L747-T751del, Sins)): 30 % Ctrl; % Ctrl, FLT3(ITD) (kinases [5]; 1 μM; target FLT3(ITD)): 0.9 % Ctrl; % Ctrl, FLT3(ITD, D835V) (kinases [5]; 1 μM; target FLT3(ITD, D835V)): 0.4 % Ctrl; % Ctrl, FLT3(ITD, F691L) (kinases [5]; 1 μM; target FLT3(ITD, F691L)): 0.1 % Ctrl |
